Experimental data: patent US20250195521A1 (Revolution Medicines, Inc., priority 2020, published 2025)

What was measured:
[1] = biological target: K-Ras G12C(GMP-PNP) binding to BRAF RBD (Homo sapiens (Human), UniProt P01116+P62937, G12C); assay: Disruption of BRAF RBD interaction with K-Ras (FRET / MOA assay), K-Ras G12C; assay type: biochemical; conditions: read-out: KRAS G12C FRET IC50
Summary of the method: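 Cpd 10-pt 3-fold dilution, top 30 μM final; Ras/CypA/BRAF RBD mix 3 h, 25° C. Add anti-His Eu-W1024 10 nM + anti-GST APC 50 nM final, 1.5 h. Readout TR-FRET ratio decrease vs DMSO → IC50.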

[2] = biological target: KRAS G12S binding to BRAF RBD (Homo sapiens (Human), UniProt P01116+P62937, G12S); assay: Ras-Raf disruption/FRET/MOA assay, KRAS G12S; assay type: biochemical
Chain of KRAS G12S binding to BRAF RBD (P01116 other isoform, or with tags, fused parts or gaps G12S): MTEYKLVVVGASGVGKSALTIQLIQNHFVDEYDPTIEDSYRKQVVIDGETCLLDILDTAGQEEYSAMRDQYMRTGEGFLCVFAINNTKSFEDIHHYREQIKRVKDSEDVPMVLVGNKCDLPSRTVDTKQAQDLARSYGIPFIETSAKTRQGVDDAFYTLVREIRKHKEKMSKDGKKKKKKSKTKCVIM
Chain of KRAS G12S binding to BRAF RBD (P62937 whole entry): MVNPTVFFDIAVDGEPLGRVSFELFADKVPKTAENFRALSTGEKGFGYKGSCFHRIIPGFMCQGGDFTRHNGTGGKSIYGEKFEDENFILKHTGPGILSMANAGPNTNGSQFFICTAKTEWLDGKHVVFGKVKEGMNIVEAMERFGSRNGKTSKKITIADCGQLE
Description: (§1) Note—The following protocol describes a procedure for monitoring disruption of K-Ras G12C(GMP-PNP) binding to BRAF^RBD by a compound of the invention. This protocol may also be executed substituting other Ras proteins or nucleotides.
(§2) The purpose of this biochemical assay was to measure the ability of test compounds to facilitate ternary complex formation between a nucleotide-loaded K-Ras isoform and Cyclophilin A; the resulting ternary complex disrupts binding to a BRAF^RBD construct, inhibiting K-Ras signaling through a RAF effector. Data is reported as IC50 values.
(§3) Compound was present in plate wells as a 10-point 3-fold dilution series starting at a final concentration of 30 μM. After incubation at 25° C. for 3 hours, a mixture of Anti-His Eu—W1024 and anti-GST allophycocyanin was then added to assay sample wells at final concentrations of 10 nM and 50 nM, respectively, and the reaction incubated for an additional 1.5 hours. […] Compounds that facilitate disruption of a K-Ras: RAF complex were identified as those eliciting a decrease in the TR-FRET ratio relative to DMSO control wells.

[3] = biological target: KRAS G12V binding to BRAF RBD (Homo sapiens (Human), UniProt P01116+P62937, G12V); assay: Ras-Raf disruption/FRET/MOA assay, KRAS G12V; assay type: biochemical; conditions: read-out: KRAS G12V FRET IC50
Chain of KRAS G12V binding to BRAF RBD (P01116 other isoform, or with tags, fused parts or gaps G12V): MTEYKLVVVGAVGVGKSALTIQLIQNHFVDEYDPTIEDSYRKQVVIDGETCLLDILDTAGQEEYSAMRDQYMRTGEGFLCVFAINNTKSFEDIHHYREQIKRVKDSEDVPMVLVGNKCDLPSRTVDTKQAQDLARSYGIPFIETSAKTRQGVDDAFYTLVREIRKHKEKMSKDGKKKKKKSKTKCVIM
Chain of KRAS G12V binding to BRAF RBD (P62937 whole entry): as the sequence (P62937 whole entry) above
Description: as §1, §2, §3

[4] = system: NCI-H358 cells (K-Ras G12C); assay: CellTiter-Glo cell viability, NCI-H358; assay type: cell-based, human; conditions: Homo sapiens, NCI-H358, 120 h, K-Ras G12C, 5-day treatment; read-out: H358 Cell Viability IC50
Summary of the method: (§4)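 Luminescence read on day 5 after ~30 min room-temperature equilibration; compounds added directly to plated cells. Values = (sample signal/avg DMSO)*100, four-parameter logistic fit.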

[5] = system: Capan-1 cells (K-Ras G12V); assay: CellTiter-Glo cell viability, Capan-1; assay type: cell-based, human; conditions: Homo sapiens, CAPAN-1, 120 h, K-Ras G12V, 5-day treatment; read-out: Capan-1 Cell Viability IC50
Summary of the method: as §4

KRAS G12C = KRAS G12C (Homo sapiens (Human), UniProt P01116+P62937, G12C); assay: Ras-Raf disruption/FRET/MOA assay (BRAF RBD, Cyclophilin A); assay type: biochemical; conditions: read-out: KRAS G12C FRET IC50
Chain of KRAS G12C (P01116-2 other isoform, or with tags, fused parts or gaps G12C): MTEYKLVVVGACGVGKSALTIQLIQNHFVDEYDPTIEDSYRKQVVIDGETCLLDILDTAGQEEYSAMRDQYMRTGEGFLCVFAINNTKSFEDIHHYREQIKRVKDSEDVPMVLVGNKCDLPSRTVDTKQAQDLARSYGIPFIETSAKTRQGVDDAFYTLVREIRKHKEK
Chain of KRAS G12C (P62937 whole entry): as the sequence (P62937 whole entry) above
Summary of the method: (§5)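 25 μM tagless Cyclophilin A, 12.5 nM His6-Ras-GMPPNP and 50 nM GST-BRAF RBD in HEPES pH 7.3 buffer with 5 mM MgCl2, with compound (10-point 3-fold series from 30 μM final) for 3 h at 25 °C. Anti-His Eu and anti-GST APC then added for 1.5 h. IC50 from TR-FRET ratio decrease versus DMSO.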

KRAS G12D = KRAS G12D (Homo sapiens (Human), UniProt P01116+P62937, G12D); assay: as above; assay type: biochemical; conditions: read-out: KRAS G12D FRET IC50
Chain of KRAS G12D (P01116 other isoform, or with tags, fused parts or gaps G12D): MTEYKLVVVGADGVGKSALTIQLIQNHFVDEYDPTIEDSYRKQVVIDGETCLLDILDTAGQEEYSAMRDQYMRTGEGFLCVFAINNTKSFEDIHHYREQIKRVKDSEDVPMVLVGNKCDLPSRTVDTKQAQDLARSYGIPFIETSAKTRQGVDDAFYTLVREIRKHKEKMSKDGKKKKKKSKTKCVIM
Chain of KRAS G12D (P62937 whole entry): as the sequence (P62937 whole entry) above
Summary of the method: as §5

KRAS G12S = KRAS G12S (Homo sapiens (Human), UniProt P01116+P62937, G12S); assay: as above; assay type: biochemical; conditions: read-out: KRAS G12S FRET IC50
Chain of KRAS G12S (P01116 other isoform, or with tags, fused parts or gaps G12S): as the sequence (P01116 other isoform, or with tags, fused parts or gaps G12S) above
Chain of KRAS G12S (P62937 whole entry): as the sequence (P62937 whole entry) above
Summary of the method: as §5

KRAS G12V = KRAS G12V (Homo sapiens (Human), UniProt P01116+P62937, G12V); assay: as above; assay type: biochemical; conditions: read-out: KRAS G12V FRET IC50
Chain of KRAS G12V (P01116 other isoform, or with tags, fused parts or gaps G12V): as the sequence (P01116 other isoform, or with tags, fused parts or gaps G12V) above
Chain of KRAS G12V (P62937 whole entry): as the sequence (P62937 whole entry) above
Summary of the method: as §5

KRAS G13C = KRAS G13C (Homo sapiens (Human), UniProt P01116+P62937, G13C); assay: as above; assay type: biochemical; conditions: read-out: KRAS G13C FRET IC50
Summary of the method: as §5

KRAS G13D = KRAS G13D (Homo sapiens (Human), UniProt P01116+P62937, G13D); assay: as above; assay type: biochemical; conditions: read-out: KRAS G13D FRET data IC50
Chain of KRAS G13D (P01116 other isoform, or with tags, fused parts or gaps G13D): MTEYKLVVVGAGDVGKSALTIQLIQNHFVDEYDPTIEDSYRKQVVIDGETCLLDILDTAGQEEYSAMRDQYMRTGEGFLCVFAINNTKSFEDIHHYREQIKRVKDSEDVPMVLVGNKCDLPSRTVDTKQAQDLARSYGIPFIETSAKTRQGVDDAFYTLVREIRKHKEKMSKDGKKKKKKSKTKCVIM
Chain of KRAS G13D (P62937 whole entry): as the sequence (P62937 whole entry) above
Summary of the method: as §5

KRAS Q61H = KRAS Q61H (Homo sapiens (Human), UniProt P01116+P62937, Q61H); assay: as above; assay type: biochemical
Chain of KRAS Q61H (P01116 other isoform, or with tags, fused parts or gaps Q61H): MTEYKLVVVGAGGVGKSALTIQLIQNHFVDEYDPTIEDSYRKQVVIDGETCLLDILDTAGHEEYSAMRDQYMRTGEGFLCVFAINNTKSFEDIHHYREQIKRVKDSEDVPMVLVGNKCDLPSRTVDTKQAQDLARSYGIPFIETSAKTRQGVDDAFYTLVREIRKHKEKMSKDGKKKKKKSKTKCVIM
Chain of KRAS Q61H (P62937 whole entry): as the sequence (P62937 whole entry) above
Summary of the method: as §5

KRAS WT = KRAS WT (Homo sapiens (Human), UniProt P01116+P62937); assay: as above; assay type: biochemical; conditions: read-out: KRAS WT FRET data IC50
Summary of the method: as §5

NRAS G12C = NRAS G12C (Homo sapiens (Human), UniProt P01111+P62937, G12C); assay: as above; assay type: biochemical; conditions: read-out: NRAS G12C FRET data IC50
Summary of the method: (§6)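 Measured: compound-facilitated Cyclophilin A:Ras complex blocking RAF RBD binding. Conditions: 12.5 nM Ras-GMPPNP, 50 nM BRAF RBD, 25 μM CypA, 3 h plus 1.5 h detection. Output: IC50 from TR-FRET ratio.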

NRAS Q61K = NRAS Q61K (Homo sapiens (Human), UniProt P01111+P62937, Q61K); assay: as above; assay type: biochemical
Summary of the method: as §6

NRAS Q61R = NRAS Q61R (Homo sapiens (Human), UniProt P01111+P62937, Q61R); assay: as above; assay type: biochemical
Chain of NRAS Q61R (P01111 whole entry Q61R): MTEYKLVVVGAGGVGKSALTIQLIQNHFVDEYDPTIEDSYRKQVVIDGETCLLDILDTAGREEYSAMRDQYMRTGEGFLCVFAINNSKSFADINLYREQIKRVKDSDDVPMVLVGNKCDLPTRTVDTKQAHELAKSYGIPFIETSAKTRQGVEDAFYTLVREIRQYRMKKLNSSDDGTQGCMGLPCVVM
Chain of NRAS Q61R (P62937 whole entry): as the sequence (P62937 whole entry) above
Summary of the method: as §6

NRAS WT = NRAS WT (Homo sapiens (Human), UniProt P01111+P62937); assay: as above; assay type: biochemical
Chain of NRAS WT (P01111 whole entry): as the sequence (P01111 whole entry Q61R) above, with R61Q counted along it
Chain of NRAS WT (P62937 whole entry): as the sequence (P62937 whole entry) above
Summary of the method: as §6

NCI-H358 (K-Ras G12C) = assay: CellTiter-Glo cell viability assay, NCI-H358; assay type: cell-based, human; conditions: Homo sapiens, NCI-H358, 120 h, 5-day treatment; read-out: H358 Cell Viability assay data (K-Ras G12C, IC50)
Summary of the method: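 Luminescent CellTiter-Glo read-out on day 5 after compound exposure; signal expressed as percent of mean DMSO control; four-parameter logistic fit gives the value.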

[6] = biological target: KRAS WT binding to BRAF RBD (Homo sapiens (Human), UniProt P01116+P62937); assay: Ras-Raf disruption/FRET/MOA assay, KRAS WT; assay type: biochemical
Chain of KRAS WT binding to BRAF RBD (P01116 other isoform, or with tags, fused parts or gaps): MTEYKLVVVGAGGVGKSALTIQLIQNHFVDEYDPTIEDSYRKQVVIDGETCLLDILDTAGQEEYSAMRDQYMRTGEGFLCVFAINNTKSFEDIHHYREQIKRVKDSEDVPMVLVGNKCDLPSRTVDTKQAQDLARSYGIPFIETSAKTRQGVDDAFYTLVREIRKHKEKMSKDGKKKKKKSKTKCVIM
Chain of KRAS WT binding to BRAF RBD (P62937 whole entry, the tested form may be a part): as the sequence (P62937 whole entry) above
Description: Disruption of B-Raf Ras-binding Domain (BRAF^RBD) Interaction with K-Ras by Compounds of the Invention (also called a FRET assay or an MOA assay)
as §1, §2
as §3, with “In assay buffer containing 25 mM HEPES pH 7.3, 0.002% Tween20, 0.1% BSA, 100 mM NaCl and 5 mM MgCl2, tagless Cyclophilin A, His6-K-Ras-GMPPNP, and GST-BRAF^RBD were combined in a 384-well assay plate at final concentrations of 25 μM, 12.5 nM and 50 nM, respectively. Compound was” for “Compound was”

[7] = system: K-Ras G12C (NCI-H358 cells); assay: Potency assay: pERK in NCI-H358 cells; assay type: cell-based, human; conditions: Homo sapiens; NCI-H358 cells, 4 hours; read-out: pERK EC50 (H358 KRAS G12C)
Summary of the method: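 Cells plated the day before were exposed for 4 h at 37° C, 5% CO2 to a 10-point, 3-fold DMSO dilution series (10 mM top stock), in duplicate. Phospho-ERK was read by AlphaLISA SureFire Ultra or by In-Cell Western with DRAQ5 DNA stain, and IC50 came from a 4-parameter sigmoidal fit.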

[8] = biological target: KRAS G13D binding to BRAF RBD (Homo sapiens (Human), UniProt P01116+P62937, G13D); assay: Ras-Raf disruption/FRET/MOA assay, KRAS G13D; assay type: biochemical
Chain of KRAS G13D binding to BRAF RBD (P01116 other isoform, or with tags, fused parts or gaps G13D): as the sequence (P01116 other isoform, or with tags, fused parts or gaps G13D) above
Chain of KRAS G13D binding to BRAF RBD (P62937 whole entry): as the sequence (P62937 whole entry) above
Description: as §1, §2, §3

[9] = biological target: NRAS G12C binding to BRAF RBD (Homo sapiens (Human), UniProt P01111+P62937, G12C); assay: Ras-Raf disruption/FRET/MOA assay, NRAS G12C; assay type: biochemical
Description: as §1, §2, §3

Chain of K-Ras G12C(GMP-PNP) binding to BRAF RBD (P01116 other isoform, or with tags, fused parts or gaps G12C): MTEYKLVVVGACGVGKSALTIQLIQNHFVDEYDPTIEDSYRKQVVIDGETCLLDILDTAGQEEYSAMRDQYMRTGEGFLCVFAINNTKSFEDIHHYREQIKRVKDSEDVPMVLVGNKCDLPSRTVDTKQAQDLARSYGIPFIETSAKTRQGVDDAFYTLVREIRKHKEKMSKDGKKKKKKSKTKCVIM
Chain of K-Ras G12C(GMP-PNP) binding to BRAF RBD (P62937 whole entry): as the sequence (P62937 whole entry) above

| IC50 [1] [nM] | IC50 [2] [nM] | IC50 [3] [nM] | IC50 [4] [nM] | IC50 (NCI-H358 (K-Ras G12C)) [nM] | IC50 [6] [nM] | EC50 [7] [nM] | SMILES | also measured |
| --- | --- | --- | --- | --- | --- | --- | --- | --- |
| < 10 | 10 to 100 | 10 to 100 |  |  |  |  | CCn1c(-c2cccnc2[C@H](C)OC)c2c3cc(ccc31)-c1cc(O)cc(c1)C[C@H](NC(=O)C(C1CC1)C1CC1)C(=O)N1CCC[C@H](N1)C(=O)OCC(C)(C)C2 [Compound A184] |  |
| 10 to 100 | 10 to 100 | 10 to 100 | 100 to 1000 | 10 to 100 | 10 to 100 |  | CCn1c(-c2cccnc2[C@H](C)OC)c2c3cc(ccc31)-c1csc(n1)C[C@H](NC(=O)N1CC[C@@H]1COC)C(=O)N1CCC[C@H](N1)C(=O)OCC(C)(C)C2 [Compound A264] | IC50 [5]: 100 to 1000 nM; IC50 (KRAS G12C): 10 to 100 nM; IC50 (KRAS G12D): 100 to 1000 nM; IC50 (KRAS G12S): 100 to 1000 nM; IC50 (KRAS G12V): 10 to 100 nM; IC50 (KRAS G13C): 100 to 1000 nM; IC50 (KRAS G13D): 100 to 1000 nM; IC50 (KRAS Q61H): 100 to 1000 nM; IC50 (KRAS WT): 100 to 1000 nM; IC50 (NRAS G12C): 10 to 100 nM; IC50 (NRAS Q61K): 100 to 1000 nM; IC50 (NRAS Q61R): 100 to 1000 nM; IC50 (NRAS WT): 100 to 1000 nM |
| < 10 | 10 to 100 | 10 to 100 |  | < 10 |  | < 5000 | CCn1c(-c2cccnc2[C@H](C)OC)c2c3cc(ccc31)-c1cc(O)cc(c1)C[C@H](NC(=O)[C@H](C(C)C)N(C)C(=O)[C@H]1CCC(C(=O)C#CCOC)C1)C(=O)N1CCC[C@H](N1)C(=O)OCC(C)(C)C2 (stereo partly drawn) [Compound A266] | IC50 [8]: 100 to 1000 nM; IC50 [9]: < 10 nM |
| 10 to 100 | 10 to 100 | 10 to 100 | 10 to 100 | < 10 | 10 to 100 | < 5000 | CCn1c(-c2cccnc2[C@H](C)OC)c2c3cc(ccc31)-c1csc(n1)C[C@H](NC(=O)[C@H](C(C)C)N(C)C(=O)N1CCCC[C@@H](N(C)C)C1)C(=O)N1CCC[C@H](N1)C(=O)OCC(C)(C)C2 [Compound A492] |  |
